Source: patent US10590496B2, “Composition for preventing and treating degenerative brain disease using novel lactic acid bacteria” (WEDEA INC., priority 2016, dated 2020)

Assays:
[1] = test system: IFN-γ, IL-2, IL-4, and IL-10; test: ELISA absorbance of culture supernatant of spleen cells (cytokine not specified); format: in vivo, Balb/c based male mice; details: 100 mg/kg orally for 14 days; spleen cells on anti-CD3 mAb, 48 hours
Experimental: (§1) Balb/c based male mice (8 weeks old) were divided into a vehicle control group, a group in which 5-aminolevulinic acid (hereinafter, referred as ‘ALA’, 100 mg/kg) was orally administered for 14 days (2 weeks), a group in which Lactobacillus reuteri ELF (hereinafter, referred to as ‘LAB’, 100 mg/kg) was orally administered for 14 days (2 weeks), a group in which a mixture sample (50 mg/kg) of Lactobacillus reuteri ELF and 5-aminolevulinic acid (hereinafter, referred to as ‘ALA+LAB’) was orally administered for 14 days (2 weeks), and a group in which the mixture sample (100 mg/kg) of Lactobacillus reuteri ELF and 5-aminolevulinic acid was orally administered for 14 days (2 weeks).
(§2) After 2 weeks of administration, the spleen was harvested from the mice, and spleen cells were isolated with a 100 mesh filter. Before one day of measurement, anti-CD3 mAb (1 μg/ml) was coated on a 96-well plate and kept overnight in a refrigerator at 4° C., and the 96-well plate was washed with D-PBS two times. […] Levels of IFN-γ, IL-2, IL-4, and IL-10 in the culture supernatant were measured by enzyme-linked immuno-sorbent assay (ELISA). […] Thereafter, absorbance was measured at 450 nm in an ELISA reader.

[2] = test system: cytochrome c oxidase (COX); test: COX activity in liver mitochondria; format: in vivo, Balb/c based mice; details: 100 mg/kg orally for 14 days
Experimental: Balb/c based mice were divided into a vehicle control group, a group in which 5-aminolevulinic acid (100 mg/kg) was orally administered for 14 days (2 weeks), a group in which Lactobacillus reuteri ELF (100 mg/kg) was orally administered for 14 days (2 weeks), and a group in which the mixture sample (100 mg/kg) of Lactobacillus reuteri ELF and 5-aminolevulinic acid was orally administered for 14 days (2 weeks). In order to measure cytochrome c oxidase (COX) activity in the liver mitochondria of the mouse after administration, proteins were extracted from the liver cells of the mouse and measured using a COX activity assay kit (TA100, Toyo B Net).

CD3 T cells = test: Flow cytometry, frequency of CD3 T cells; format: in vivo, Balb/c based male mice; details: 100 mg/kg orally for 14 days
[3] = test system: nitrogen oxide (NO) in macrophage; test: Nitrogen oxide (NO) formation in macrophage; format: in vivo, Balb/c based mice; details: 100 mg/kg orally for 14 days; peritoneal macrophages cultured 72 hours
Experimental: Balb/c based mice were divided into a vehicle control group, a group in which 5-aminolevulinic acid (100 mg/kg) was orally administered for 14 days (2 weeks), a group in which Lactobacillus reuteri ELF (100 mg/kg) was orally administered for 14 days (2 weeks), a group in which a mixture sample (50 mg/kg) of Lactobacillus reuteri ELF and 5-aminolevulinic acid was orally administered for 14 days (2 weeks), and a group in which the mixture sample (100 mg/kg) of Lactobacillus reuteri ELF and 5-aminolevulinic acid was orally administered for 14 days (2 weeks). Three days before termination of administration, after 1.5 ml of 10% proteose peptone (Difco) aqueous solution was administered into the abdominal cavity of the mice, the mice were sacrificed, and the abdomen was disinfected with alcohol. The skin of the abdomen was cut using scissors, and the peritoneum was exposed. Then, 4.5 ml of cooled Hanks' balanced salt solution (HBSS) was injected into the abdominal cavity using a syringe and abdominal massage was performed thereon for 30 seconds, followed by recovering a peritoneal washing fluid using a syringe. […] In addition, after 200 μl of […] reagent II in which 0.06 g of N-1-naphthylene amidehydrochloride was dissolved in 50 ml of distilled water was rapidly added thereto, and stirred, absorbance was measured at 540 nm.

IL-2 = IL-2 production amount in cultured spleen cells (ELISA); format: in vivo, Balb/c based male mice; details: single agents 100 mg/kg, mixture sample 50 and 100 mg/kg, orally for 14 days
Experimental: as §1, §2

CD4^+ CD25^+ cells = test: Flow cytometry, frequency of CD4^+ CD25^+ cells; format: in vivo, Balb/c based male mice; details: 100 mg/kg orally for 14 days
Experimental: as §1
(§3) After 2 weeks of administration, in order to obtain PBMC in the mice, the blood was extracted using a syringe (3 ml) treated with heparin by a cardiac puncture method. The extracted blood was mixed and treated with 10 ml of ACK solution (a solution obtained by mixing 8.3 g of NH4Cl and 1 g of KHCO3 with demineralized water to which 0.1 Mm EDTA was added) prepared in advance at room temperature for 5 minutes, thereby removing red blood cells. […] Thereafter, the resultants were washed with PBS three times or more, and frequencies (%) of activated CD4^+ CD25^+, CD44^+ CD69^+, CD49b^+ NK1.1^+, and CD25^+ CTLA-4^+ cells were analyzed using a cell quest program of flow cytometry.

IL-4 = IL-4 production amount in cultured spleen cells (ELISA); format: in vivo, Balb/c based male mice; details: single agents 100 mg/kg, mixture sample 50 and 100 mg/kg, orally for 14 days
Experimental: as §1, §2

[4] = test system: peritoneal cell population; test: Proliferation of peritoneal cell population (number of lymphocytes); format: in vivo, Balb/c based mice; details: abdominal cavity, orally for 14 days
Experimental: Balb/c based mice were divided into a vehicle control group, a group in which 5-aminolevulinic acid (100 mg/kg) was orally administered for 14 days (2 weeks), a group in which Lactobacillus reuteri ELF (100 mg/kg) was orally administered for 14 days (2 weeks), a group in which a mixture sample (50 mg/kg) of Lactobacillus reuteri ELF and 5-aminolevulinic acid was orally administered for 14 days (2 weeks), and a group in which the mixture sample (100 mg/kg) of Lactobacillus reuteri ELF and 5-aminolevulinic acid was orally administered for 14 days (2 weeks). Two days before termination of administration, 0.5 ml of 2% normal saline suspension of starch was injected into the abdominal cavity of the mice to thereby be immunized. The mice were sacrificed, and the abdomen was disinfected with alcohol. […] After recovered cells were cooled, washed with the same HBSS solution two times, the number of peritoneal cells existing therein was directly measured using a hemocytometer under a microscope. […] Thereafter, the resultants were washed with PBS three times or more, and frequencies (%) of activated CD11b^+ CD14^+, CD3^+ CD4^+, and CD3^+ CD8^+ cells were analyzed using the Cell Quest program of a flow cytometry, and a total cell count was applied thereto, thereby calculating the absolute number of peritoneal cell population.

activated Th lymphocytes = test: Flow cytometry of activated Th lymphocytes in PBMC; format: in vivo, Balb/c based male mice; details: 100 mg/kg orally for 14 days
Experimental: as §1, §3

NKG2D = test: Flow cytometry, frequency of NKG2D, bioactive marker of NK cells; format: in vivo, Balb/c based male mice; details: 100 mg/kg orally for 14 days
IFN-γ = IFN-γ production amount in cultured spleen cells (ELISA); format: in vivo, Balb/c based male mice; details: single agents 100 mg/kg, mixture sample 50 and 100 mg/kg, orally for 14 days
Experimental: as §1, §2

Gr-1/CD11b cells = test: Flow cytometry, frequency of Gr-1/CD11b cells; format: in vivo, Balb/c based male mice; details: 100 mg/kg orally for 14 days

Compound: NCC(=O)CCC(=O)O [5-aminolevulinic acid]
- ELISA absorbance at 450 nm relative to control group (NC) [1]: increased two times or more
- COX activity in liver mitochondria relative to control group [2]: increased by two times or more
- frequency of CD3 T cells as compared to the control group (CD3 T cells): increased
- nitrogen oxide (NO) production amount as compared to the control group (NC) [3]: statistically significantly increased
- IL-2 production amount as compared to control group (NC) (IL-2): slightly increased
- frequency of CD4^+ CD25^+ cells as compared to the control group (CD4^+ CD25^+ cells): significantly increased
- IL-4 production amount as compared to control group (NC) (IL-4): slightly increased
- number of lymphocytes as compared to the control group [4]: increased
- frequency of activated Th lymphocytes in PBMC, increase as compared to the negative control group (activated Th lymphocytes): ≥ 46.2%
- frequency of NKG2D as compared to the control group (NKG2D): significantly increased
- IFN-γ production amount as compared to control group (NC) (IFN-γ): slightly increased
- frequency of Gr-1/CD11b cells as compared to the control group (Gr-1/CD11b cells): significantly increased
